Measurements: paper PMC7589200, “Identification of Putative Non-Substrate-Based XT-I Inhibitors by Natural Product Library Screening” (Biomolecules, 2020)

Tests used:
recombinant human XT-I = target: T1, recombinant human XT-I (Homo sapiens, UniProt Q86Y38); test: NP library inhibitor screening, UPLC/ESI-MS/MS XT-I assay; format: biochemical; conditions: 50 μM inhibitor, technical duplicates; for XT-I Activity [%]: Table 2, relative to control (DMSO = 100%); for remaining activity at 50 µM: Table S1, relative to negative control containing DMSO
T1 sequence (Q86Y38 252-959 limits assumed): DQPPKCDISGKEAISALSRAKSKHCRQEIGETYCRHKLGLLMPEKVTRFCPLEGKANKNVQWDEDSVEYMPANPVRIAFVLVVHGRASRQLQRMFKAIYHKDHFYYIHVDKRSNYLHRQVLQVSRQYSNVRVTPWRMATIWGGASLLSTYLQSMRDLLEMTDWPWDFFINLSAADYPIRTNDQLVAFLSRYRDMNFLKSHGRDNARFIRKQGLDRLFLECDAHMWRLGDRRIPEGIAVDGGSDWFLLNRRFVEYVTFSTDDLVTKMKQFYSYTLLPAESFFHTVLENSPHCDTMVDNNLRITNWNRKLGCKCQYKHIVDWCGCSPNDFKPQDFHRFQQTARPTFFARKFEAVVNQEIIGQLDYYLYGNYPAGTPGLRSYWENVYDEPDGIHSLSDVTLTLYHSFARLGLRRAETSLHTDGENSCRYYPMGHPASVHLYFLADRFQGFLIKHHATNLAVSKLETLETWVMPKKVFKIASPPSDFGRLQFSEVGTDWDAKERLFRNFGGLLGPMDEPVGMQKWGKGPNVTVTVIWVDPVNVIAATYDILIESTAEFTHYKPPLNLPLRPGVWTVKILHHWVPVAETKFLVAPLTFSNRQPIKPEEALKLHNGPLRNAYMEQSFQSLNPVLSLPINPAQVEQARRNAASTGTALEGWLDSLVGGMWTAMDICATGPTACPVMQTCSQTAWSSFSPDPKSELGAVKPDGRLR

[1] = tested on: normal human dermal fibroblasts (NHDFs); test: WST-1 cell proliferation assay; format: cell-based; conditions: 48 h
Protocol: Normal human dermal fibroblasts (NHDFs) from a 37- and […] were obtained commercially from Cambrex (Walkerville, United States) and Coriell (New Jersey, United States). The NHDFs were cultured in phenol red-free Dulbecco’s modified Eagle’s medium (DMEM; Thermo Fisher Scientific, Waltham, Massachusetts, United States) supplemented with 10% (v/v) FCS, 4 mM L-glutamine and 100,000 U/L penicillin, 100 mg/L Streptomycin, 0.25 mg/L amphotericin B (PAN Biotech, Aidenbach, Germany) at 37 °C, 5% CO2. The medium was changed twice a week until the cells reached 80% confluency. The NHDFs were subcultured with an expansion ratio of 1:3 using 0.05% trypsin (PAN Biotech, Aidenbach, Germany) and used until the ninth passage.
The tetrazolium salt WST-1 (Roche, Basel, Swiss) was used for the spectrophotometric quantification of cell proliferation in response to various inhibitor concentrations. The cell proliferation assay was carried out according to the manufacturer’s instructions in a 96-well tissue culture plate with 1700 cells per cavity. Based on the inhibition studies, the cells were cultured in fully supplemented DMEM for 24 h then treated with celastrol or amphotericin B for an additional 48 h. The WST-1 reagent was added to the cell culture supernatant 4 h before the end of the treatment. The absorptions at 440 and 590 nm were measured at timepoints 0, 1, 2, 3 and 4 h after the addition of WST-1.

SMILES | XT-I Activity [%] (recombinant human XT-I) | remaining activity at 50 µM (recombinant human XT-I) [%] | cell proliferation (WST-1) compared to control ([1]; 4.0 μM) | cell proliferation (WST-1) compared to control ([1]; 0.5 to 2.0 μM) | cell proliferation (WST-1) compared to control ([1]; 2.0 μM) | cell proliferation (WST-1) compared to control ([1]; 0.5 and 1.0 μM)
C[C@@H]1[C@H](O)[C@@H](C)/C=C/C=C/C=C/C=C/C=C/C=C/C=C/[C@H](O[C@@H]2O[C@H](C)[C@@H](O)[C@H](N)[C@@H]2O)C[C@@H]2O[C@](O)(C[C@@H](O)C[C@@H](O)[C@H](O)CC[C@@H](O)C[C@@H](O)CC(=O)O[C@H]1C)C[C@H](O)[C@H]2C(=O)O [Compound 17, Amphotericin B] | 25 | 25 | reduced the proliferation of NHDFs significantly | did not influence cellular proliferation | – | –
CC1=C(O)C(=O)C=C2C1=CC=C1[C@@]2(C)CC[C@@]2(C)[C@@H]3C[C@](C)(C(=O)O)CC[C@]3(C)CC[C@]12C [Compound 68, Celastrol] | 38 | 38 | significantly decreased cell proliferation | – | significantly decreased cell proliferation | did not influence cellular proliferation
